SMILES strings stand for the structures.

Series [1] in a line: Selectivity index, ratio of IC50 for antiproliferative activity against human HCC1937 cells harboring BRCA1 mutant assessed as cell viability to IC50 for antiproliferative activity against human MDA-MB-231 cells assessed as cell viability. It is filed as functional.
For a further series, the system named is HCT-116. Nature of the series: Antiproliferative activity against human HCT-116 cells harboring BRCA2 mutant assessed as cell viability incubated for 48 hrs by MTT assay. The class given is functional, cell-based. The following applies: HCT-116, 48 h. For orientation: Tetrazolium dyes change colour on reduction, which living cells bring about.
For the next series, the system named is HCC1937. Kind of series: Antiproliferative activity against human HCC1937 cells harboring BRCA1 mutant assessed as cell viability incubated for 48 hrs by MTT assay. It is filed as functional, cell-based. The following applies: HCC1937, 48 h.
In series [2] the target is Poly [ADP-ribose] polymerase 1 (Homo sapiens, UniProt P09874). Nature of the series: Inhibition of GST-tagged PARP1(unknown origin) in presence of activated DNA incubated for 60 mins by microplate reader analysis.
Series [3] deals with Cyclin-dependent kinase 6 (Homo sapiens, UniProt Q00534). Kind of series: Inhibition of full length N-terminal human recombinant CDK6 expressed in baculovirus sf9 cells in presence of ATP by ADP-glo kinase assay.
Series [4] can be described thus: Cytotoxicity against human MCF-10A cells assessed as cell viability incubated for 48 hrs by MTT assay. The class given is toxicity, cell-based.
In a further series the test system is MDA-MB-231. Kind of series: Antiproliferative activity against human MDA-MB-231 cells assessed as cell viability incubated for 48 hrs by MTT assay. The class given is functional, cell-based. The following applies: MDA-MB-231, 48 h.
In another series the test system is MDA-MB-468. Nature of the series: Antiproliferative activity against human MDA-MB-468 cells assessed as cell viability incubated for 48 hrs by MTT assay. It is filed as functional, cell-based. The following applies: MDA-MB-468, 48 h.

Cyclin-dependent kinase 6, sequence (Q00534 whole entry): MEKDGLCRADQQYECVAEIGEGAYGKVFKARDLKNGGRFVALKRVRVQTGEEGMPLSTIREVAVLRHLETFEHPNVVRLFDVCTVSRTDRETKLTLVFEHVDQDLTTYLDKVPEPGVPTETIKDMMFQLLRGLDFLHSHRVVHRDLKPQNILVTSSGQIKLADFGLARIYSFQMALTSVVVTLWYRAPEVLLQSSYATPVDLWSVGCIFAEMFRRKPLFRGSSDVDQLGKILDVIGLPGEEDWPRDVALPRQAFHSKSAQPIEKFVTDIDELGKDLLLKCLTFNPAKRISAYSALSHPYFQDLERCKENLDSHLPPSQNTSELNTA
Poly [ADP-ribose] polymerase 1, sequence (P09874 whole entry): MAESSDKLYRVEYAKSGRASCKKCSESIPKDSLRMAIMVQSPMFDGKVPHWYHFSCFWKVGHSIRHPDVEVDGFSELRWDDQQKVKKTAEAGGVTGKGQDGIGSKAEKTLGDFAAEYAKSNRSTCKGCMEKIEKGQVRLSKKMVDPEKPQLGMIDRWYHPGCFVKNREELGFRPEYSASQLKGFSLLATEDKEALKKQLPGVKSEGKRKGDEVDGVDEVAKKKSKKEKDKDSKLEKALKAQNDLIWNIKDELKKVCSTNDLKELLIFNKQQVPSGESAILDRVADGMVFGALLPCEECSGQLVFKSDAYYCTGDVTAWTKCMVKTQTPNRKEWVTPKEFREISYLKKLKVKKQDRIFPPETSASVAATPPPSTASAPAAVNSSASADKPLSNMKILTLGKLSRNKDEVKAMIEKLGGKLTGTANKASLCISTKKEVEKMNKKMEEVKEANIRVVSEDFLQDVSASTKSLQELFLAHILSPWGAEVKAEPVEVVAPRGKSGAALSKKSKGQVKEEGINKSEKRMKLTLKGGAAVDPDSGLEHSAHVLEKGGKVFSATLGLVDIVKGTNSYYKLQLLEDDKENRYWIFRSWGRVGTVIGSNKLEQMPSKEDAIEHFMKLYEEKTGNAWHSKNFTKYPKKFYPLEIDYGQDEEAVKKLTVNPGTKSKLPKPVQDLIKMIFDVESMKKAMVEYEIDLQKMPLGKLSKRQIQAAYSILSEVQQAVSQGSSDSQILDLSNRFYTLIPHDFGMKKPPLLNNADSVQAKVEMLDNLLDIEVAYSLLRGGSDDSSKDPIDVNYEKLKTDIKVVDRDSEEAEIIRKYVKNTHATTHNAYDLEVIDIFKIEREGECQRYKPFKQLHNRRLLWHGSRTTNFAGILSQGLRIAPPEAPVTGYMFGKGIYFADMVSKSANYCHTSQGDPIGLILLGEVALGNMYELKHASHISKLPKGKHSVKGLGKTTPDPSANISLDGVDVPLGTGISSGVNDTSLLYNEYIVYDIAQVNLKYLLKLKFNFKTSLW

Take `CN(C)C(=O)c1cc2cnc(Nc3ccc(C(=O)N4CCC(c5nc6c(C(N)=O)cccc6[nH]5)C4)cc3Cl)nc2n1C1CCCC1` (stereo not drawn): the “Ratio IC50” value in series [1] was 5.48. The IC50 (commonly the concentration at which inhibition is half-maximal) in the series with HCT-116 was found to be 2020 nM; with HCC1937, 8720 nM; in series [2], 113 nM; in series [3], 45.6 nM; in the series with MDA-MB-231 it was 1590 nM; with MDA-MB-468 it was 4390 nM. The IC50 at 48 h in series [4] was found to be 930 nM.
